The source of these data is patent US20260200897A1, “4-((5-(3-(4-(PYRIDIN-2-YL)CYCLOPENTYL)-1H-PYRAZOL-3-YL)AMINO)-BENZENESULFONAMIDE DERIVATIVES AND SIMILAR COMPOUNDS AS CDK INHIBITORS FOR THE TREATMENT OF CANCER” (BeOne Medicines I GmbH, priority 2023, published 2026).

Bounds are passed on as bounds.

One assay has as its target CDK2/Cyclin E1 (Homo sapiens, UniProt P24941). In words: CDK2/Cyclin E1 TR-FRET biochemical assay, 1 mM ATP. Particulars: 0.15 μM Rb (Ser780)-biotin substrate, 90 min reaction, Table 2.
The next assay concerns the target CDK1/Cyclin B1 (Homo sapiens, UniProt P06493). Put plainly: CDK1/Cyclin B1 TR-FRET biochemical assay, 1 mM ATP. Particulars: 0.15 μM Rb (Ser780)-biotin substrate, 90 min reaction, Table 2. In general terms: Time-resolved FRET reads energy transfer from a long-lived donor to a nearby acceptor.

CDK1/Cyclin B1, sequence (P06493 whole entry): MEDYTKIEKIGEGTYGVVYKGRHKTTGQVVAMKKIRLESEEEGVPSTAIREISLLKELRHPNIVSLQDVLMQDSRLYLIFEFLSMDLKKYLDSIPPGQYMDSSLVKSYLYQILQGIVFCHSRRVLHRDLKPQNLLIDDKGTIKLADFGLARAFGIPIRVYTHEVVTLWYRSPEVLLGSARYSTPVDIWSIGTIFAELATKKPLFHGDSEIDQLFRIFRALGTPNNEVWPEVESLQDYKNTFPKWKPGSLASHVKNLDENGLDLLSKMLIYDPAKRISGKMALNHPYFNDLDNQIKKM
CDK1/Cyclin B1, sequence (P14635 whole entry partner): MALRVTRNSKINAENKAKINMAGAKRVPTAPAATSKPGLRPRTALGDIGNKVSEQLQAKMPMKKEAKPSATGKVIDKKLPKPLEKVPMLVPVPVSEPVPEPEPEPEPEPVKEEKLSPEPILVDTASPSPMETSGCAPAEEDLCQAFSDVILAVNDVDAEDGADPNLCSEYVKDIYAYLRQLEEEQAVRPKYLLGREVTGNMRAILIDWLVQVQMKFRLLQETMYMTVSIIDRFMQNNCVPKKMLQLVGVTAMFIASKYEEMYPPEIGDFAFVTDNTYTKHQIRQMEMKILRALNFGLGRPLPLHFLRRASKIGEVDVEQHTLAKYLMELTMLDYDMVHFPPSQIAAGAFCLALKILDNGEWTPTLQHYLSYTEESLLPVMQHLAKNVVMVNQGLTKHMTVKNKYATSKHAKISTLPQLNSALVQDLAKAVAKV

The IC50 is the point on the concentration scale where inhibition reaches its midpoint. Turning to `CC(C)(C)c1nnc([C@H]2CC[C@H](c3cc(Nc4ccc5c(c4F)CS(=O)(=O)N5)n[nH]3)C2)o1` (relative stereo) [Example 147, trans-5-((5-(3-(5-(tert-butyl)-1,3,4-oxadiazol-2-yl)cyclopentyl)-1H-pyrazol-3-yl)amino)-4-fluoro-1,3-dihydrobenzo[c]isothiazole 2,2-dioxide], the IC50 at CDK2/Cyclin E1 is 851 nM; against CDK1/Cyclin B1 it was > 10000 nM.
For the compound `CC(C)(C)c1cnc(C2CCC(c3cc(Nc4ccc5c(c4F)CS(=O)(=O)C5)n[nH]3)C2)o1` (centres unmarked) [Example 173, 5-((5-(3-(5-(tert-butyl)oxazol-2-yl)cyclopentyl)-1H-pyrazol-3-yl)amino)-4-fluoro-1,3-dihydrobenzo[c]thiophene 2,2-dioxide], the IC50 worked out at 2.8 nM against CDK2/Cyclin E1 and 198 nM on CDK1/Cyclin B1.
For `CC(C)(C)c1cncc(C2CCC(c3cc(Nc4ccc5c(c4F)CNS5(=O)=O)n[nH]3)C2)c1` (centres unmarked) [Example 128, 5-((5-(3-(5-(tert-butyl)pyridin-3-yl)cyclopentyl)-1H-pyrazol-3-yl)amino)-4-fluoro-2,3-dihydrobenzo[d]isothiazole 1,1-dioxide], the IC50 against CDK2/Cyclin E1 was 1250 nM; against CDK1/Cyclin B1, > 10000 nM.
The corresponding values for `CC(C)(C)c1cnc(C2CCC(c3cc(Nc4ccc5c(c4)CS(=O)(=O)N5)n[nH]3)C2)s1` (centres unmarked) [Example 137, 5-((5-(3-(5-(tert-butyl)thiazol-2-yl)cyclopentyl)-1H-pyrazol-3-yl)amino)-1,3-dihydrobenzo[c]isothiazole 2,2-dioxide] are 2030 nM and > 10000 nM.
Taken in the same sequence, the figures for `CC(C)(C)c1cnnc(C2CCC(c3cc(Nc4ccc(S(N)(=O)=O)cc4F)n[nH]3)C2)c1` (centres unmarked) [Example 3, 4-((5-(3-(5-(tert-butyl)pyridazin-3-yl)cyclopentyl)-1H-pyrazol-3-yl)amino)-3-fluorobenzenesulfonamide] were 147 nM and > 10000 nM.
Regarding `O=S1(=O)NCc2cc(Nc3cc(C4CCC(c5ncc(C6CC6)o5)C4)[nH]n3)c(F)cc21` (centres unmarked) [Example 20, 5-((5-(3-(5-cyclopropyloxazol-2-yl)cyclopentyl)-1H-pyrazol-3-yl)amino)-6-fluoro-2,3-dihydrobenzo[d]isothiazole 1,1-dioxide], the IC50 at CDK2/Cyclin E1 was 73 nM; against CDK1/Cyclin B1 it was > 10000 nM.
Taken in the same sequence, the figures for `CC(C)(C)c1ccnc(C2CCC(c3cc(Nc4cc5c(cc4F)S(=O)(=O)NC5)n[nH]3)C2)n1` (centres unmarked) [Example 15, 5-((5-(3-(4-(tert-butyl)pyrimidin-2-yl)cyclopentyl)-1H-pyrazol-3-yl)amino)-6-fluoro-2,3-dihydrobenzo[d]isothiazole 1,1-dioxide] were 3.7 nM and 1060 nM.
Taken in the same sequence, the figures for `CC(C)(C)c1ncccc1O[C@@H]1CC[C@H](c2cc(Nc3ccc4c(c3)CS(=O)(=O)N4)n[nH]2)C1` (relative stereo) [Example 139, cis-5-((5-(3-((2-(tert-butyl)pyridin-3-yl)oxy)cyclopentyl)-1H-pyrazol-3-yl)amino)-1,3-dihydrobenzo[c]isothiazole 2,2-dioxide] were 54 nM and 5710 nM.
On to `CC(C)(C)C1CCC(C2CCC(c3cc(Nc4ccc5c(c4F)CNS5(=O)=O)n[nH]3)C2)O1` (centres unmarked) [Example 104, 5-((5-(3-(5-(tert-butyl)tetrahydrofuran-2-yl)cyclopentyl)-1H-pyrazol-3-yl)amino)-4-fluoro-2,3-dihydrobenzo[d]isothiazole 1,1-dioxide], for which the IC50 was 1790 nM on CDK2/Cyclin E1 and > 10000 nM against CDK1/Cyclin B1.
The corresponding values for `CC(C)c1cnc(C2CCC(c3cc(Nc4ccc(S(N)(=O)=O)cc4F)n[nH]3)C2)o1` (centres unmarked) [Example 7, 3-fluoro-4-((5-(3-(5-isopropyloxazol-2-yl)cyclopentyl)-1H-pyrazol-3-yl)amino)benzenesulfonamide] are 93 nM and > 10000 nM.
Regarding `CC(C)(C)c1cnc(C2CCC(c3cc(Nc4ccc(S(N)(=O)=O)cc4F)n[nH]3)C2)o1` (single isomer, unassigned) [Example 6a, 4-((5-(3-(5-(tert-butyl)oxazol-2-yl)cyclopentyl)-1H-pyrazol-3-yl)amino)-3-fluorobenzenesulfonamide], the IC50 on CDK2/Cyclin E1 was 3 nM; against CDK1/Cyclin B1 it was 2000 nM.
In the case of `CC(C)(C)c1ccnc(C2CCC(c3cc(Nc4ccc5c(c4F)CNS5(=O)=O)[nH]n3)C2)c1` (centres unmarked) [Example 117, 5-((3-(3-(4-(tert-butyl)pyridin-2-yl)cyclopentyl)-1H-pyrazol-5-yl)amino)-4-fluoro-2,3-dihydrobenzo[d]isothiazole 1,1-dioxide], the IC50 was determined as 34 nM on CDK2/Cyclin E1 and 6770 nM on CDK1/Cyclin B1.
As to `Cc1[nH]nc(C(C)(C)C)c1O[C@@H]1CC[C@H](c2cc(Nc3ccc4c(c3F)CNS4(=O)=O)n[nH]2)C1` (relative stereo) [Example 80, cis-5-((5-(3-((3-(tert-butyl)-5-methyl-1H-pyrazol-4-yl)oxy)cyclopentyl)-1H-pyrazol-3-yl)amino)-4-fluoro-2,3-dihydrobenzo[d]isothiazole 1,1-dioxide], the IC50 against CDK2/Cyclin E1 was 1120 nM; on CDK1/Cyclin B1 it was > 10000 nM.
Taken in the same sequence, the figures for `CC(C)(C)c1coc(C2CCC(c3cc(Nc4ccc5c(c4F)CS(=O)(=O)N5)n[nH]3)C2)n1` (centres unmarked) [Example 148, 5-((5-(3-(4-(tert-butyl)oxazol-2-yl)cyclopentyl)-1H-pyrazol-3-yl)amino)-4-fluoro-1,3-dihydrobenzo[c]isothiazole 2,2-dioxide] were 78 nM and 7400 nM.
In the case of `CC(C)c1ccnc(C2CCC(c3cc(Nc4cc5c(cc4F)S(=O)(=O)NC5)n[nH]3)C2)n1` (centres unmarked) [Example 16, 6-fluoro-5-((5-(3-(4-isopropylpyrimidin-2-yl)cyclopentyl)-1H-pyrazol-3-yl)amino)-2,3-dihydrobenzo[d]isothiazole 1,1-dioxide], the 50% inhibitory concentration (IC50) at CDK2/Cyclin E1 came to 12 nM; on CDK1/Cyclin B1 it was 2490 nM.
`CC(C)(C)c1cnc([C@@H]2CC[C@H](c3cc(Nc4ccc5c(c4F)CS(=O)(=O)N5)n[nH]3)C2)s1` (relative stereo) [Example 149, cis-5-((5-(3-(5-(tert-butyl)thiazol-2-yl)cyclopentyl)-1H-pyrazol-3-yl)amino)-4-fluoro-1,3-dihydrobenzo[c]isothiazole 2,2-dioxide]: the IC50 on CDK2/Cyclin E1 is 6120 nM; at CDK1/Cyclin B1, > 10000 nM.
As for `CC(C)c1ncc(C2CCC(c3cc(Nc4ccc5c(c4F)CNS5(=O)=O)n[nH]3)C2)o1` (centres unmarked) [Example 105, 4-fluoro-5-((5-(3-(2-isopropyloxazol-5-yl)cyclopentyl)-1H-pyrazol-3-yl)amino)-2,3-dihydrobenzo[d]isothiazole 1,1-dioxide], the IC50 against CDK2/Cyclin E1 was 812 nM; at CDK1/Cyclin B1 it was > 10000 nM.
The corresponding values for `CC(C)c1cnc(C2CCC(c3cc(Nc4ccc5c(c4F)CS(=O)(=O)N5)n[nH]3)C2)o1` (single isomer, unassigned) [Example 152a, cis-4-fluoro-5-((5-(3-(5-isopropyloxazol-2-yl)cyclopentyl)-1H-pyrazol-3-yl)amino)-1,3-dihydrobenzo[c]isothiazole 2,2-dioxide] are 2.8 nM and 238 nM.
Take `Cc1nc(C2CCC(c3cc(Nc4ccc5c(c4F)CS(=O)(=O)N5)n[nH]3)C2)oc1C(C)(C)C` (centres unmarked) [Example 154, 5-((5-(3-(5-(tert-butyl)-4-methyloxazol-2-yl)cyclopentyl)-1H-pyrazol-3-yl)amino)-4-fluoro-1,3-dihydrobenzo[c]isothiazole 2,2-dioxide]: the IC50 against CDK2/Cyclin E1 is 9.6 nM; on CDK1/Cyclin B1, 540 nM.
As to `CC(C)c1ccnc(C2CCC(c3cc(Nc4ccc5c(c4F)CS(=O)(=O)N5)n[nH]3)C2)n1` (centres unmarked) [Example 165, 4-fluoro-5-((5-(3-(4-isopropylpyrimidin-2-yl)cyclopentyl)-1H-pyrazol-3-yl)amino)-1,3-dihydrobenzo[c]isothiazole 2,2-dioxide], the IC50 against CDK2/Cyclin E1 worked out at 1.7 nM; on CDK1/Cyclin B1 it was 126 nM.
In the case of `CC(C)(C)c1cn([C@@H]2CC[C@H](c3cc(Nc4ccc5c(c4F)CNS5(=O)=O)n[nH]3)C2)nn1` (relative stereo) [Example 90, cis-5-((5-(3-(4-(tert-butyl)-1H-1,2,3-triazol-1-yl)cyclopentyl)-1H-pyrazol-3-yl)amino)-4-fluoro-2,3-dihydrobenzo[d]isothiazole 1,1-dioxide], the IC50 at CDK2/Cyclin E1 was 3310 nM; on CDK1/Cyclin B1, > 10000 nM.
For `CC(C)c1cnc(C2CCC(c3cc(Nc4ccc5c(c4)CS(=O)(=O)N5)n[nH]3)C2)o1` (single isomer, unassigned) [Example 138a, cis-5-((5-(3-(5-isopropyloxazol-2-yl)cyclopentyl)-1H-pyrazol-3-yl)amino)-1,3-dihydrobenzo[c]isothiazole 2,2-dioxide], the IC50 on CDK2/Cyclin E1 turned out to be 1.8 nM; on CDK1/Cyclin B1 it was 160 nM.
Consider `CC(C)c1cnc(C2CCC(c3cc(Nc4ccc5c(c4F)CNS5(=O)=O)n[nH]3)C2)o1` (single isomer, unassigned) [Example 109d, 4-fluoro-5-((5-(3-(5-isopropyloxazol-2-yl)cyclopentyl)-1H-pyrazol-3-yl)amino)-2,3-dihydrobenzo[d]isothiazole 1,1-dioxide], for which the IC50 is 158 nM at CDK2/Cyclin E1 and > 10000 nM against CDK1/Cyclin B1.
On to `CN1c2ccc(Nc3cc([C@@H]4CC[C@H](c5ncc(C(C)(C)C)o5)C4)[nH]n3)cc2CS1(=O)=O` [Example 142, 5-((5-((1R,3S)-3-(5-(tert-butyl)oxazol-2-yl)cyclopentyl)-1H-pyrazol-3-yl)amino)-1-methyl-1,3-dihydrobenzo[c]isothiazole 2,2-dioxide], for which the IC50 on CDK2/Cyclin E1 came to 12 nM; against CDK1/Cyclin B1, 2530 nM.
On to `CC(C)(C)c1ccc([C@@H]2CC[C@H](c3cc(Nc4ccc5c(c4F)CNS5(=O)=O)n[nH]3)C2)o1` (relative stereo) [Example 107, cis-5-((5-(3-(5-(tert-butyl)furan-2-yl)cyclopentyl)-1H-pyrazol-3-yl)amino)-4-fluoro-2,3-dihydrobenzo[d]isothiazole 1,1-dioxide], for which the values for the IC50 at CDK2/Cyclin E1 and on CDK1/Cyclin B1 were 2440 nM and > 10000 nM, respectively.
